From patent publication US6605627B2, “Modulators of peroxisome proliferator activated receptor-gamma, and methods for the use thereof” (The Salk Insitute for Biological Studies, priority 1999, dated 2003)

Target: T1, GAL4-PPARγ fusion protein (Mus musculus, UniProt P37238)
T1 construct: expressed in transfected cells; host or cells: CV-1 cells
T1 sequence (P37238 163-475 isoform P37238-2): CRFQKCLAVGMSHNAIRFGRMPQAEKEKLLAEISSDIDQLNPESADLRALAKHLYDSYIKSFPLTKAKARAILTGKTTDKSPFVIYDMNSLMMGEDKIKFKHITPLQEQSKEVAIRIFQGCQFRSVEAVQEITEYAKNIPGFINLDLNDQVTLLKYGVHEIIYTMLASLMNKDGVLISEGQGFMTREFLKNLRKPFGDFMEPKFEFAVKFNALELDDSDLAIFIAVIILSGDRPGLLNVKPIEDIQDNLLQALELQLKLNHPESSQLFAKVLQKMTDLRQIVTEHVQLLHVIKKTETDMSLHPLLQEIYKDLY
Experiment: Screening assay for PPAR-γ antagonists (GAL4-PPARγ luciferase reporter in CV-1 cells)
Format: cell-based
Settings: CV-1 cells co-transfected with CMX-GAL-PPARγ and pTK-MH100x4-LUC; test compound alone or with agonist 200 nM BRL 49653; FIG. 1
Method: Effector plasmid, reporter plasmid, and β-galactosidase control plasmid are co-transfected into CV-1 cells at a ratio of about 1:3:5, using a liposome-mediated method, employing N-{2-(2,3)-dioleoyloxy)propyl-N,N,N-trimethyl ammonium methyl sulfate} (i.e., DOTAP, Boehlinger Mannheim) according to the manufacturer's instructions in Dulbecco's modified Eagle's medium (DMEM) with 10% delipidated hormone-depleted fetal calf serum. After about 2-3 hours, the cells are washed with DMEM and agonist (200 nM BRL 49653) and/or an appropriate test compound (LY 171883; see FIG. 1) is added to the media. After 24-48 hours of incubation, the cells are rinsed with phosphate buffered saline (pH 7.2) and lysed. Aliquots are assayed for luciferase and β-galactosidase activity. Luciferase activity is normalized to optical density units of β-galactosidase per minute of incubation.
Thus, CV-1 cells are co-transfected with CMX-GAL-PPARγ and pTK-MH100x4-LUC at a ratio of about 100 ng of receptor-encoding DNA per 10^5 cells. The usual amounts of DNA per 10^5 cells are 100 ng of CMX-GAL-PPARγ, 300 ng of pTK-MH100x4-LUC, and 500 ng of CMX-βGAL. Typically, transfections are performed in triplicate. The plates are then incubated for 2-3 hours at 37° C.
The cells are washed with fresh medium. […]
The data are expressed as relative light units (RLUs) per O.D. unit of β-galactosidase per minute. […]

CCCc1c(OCCCCc2nnn[nH]2)ccc(C(C)=O)c1O [LY 171883]
relative reporter activity (functional activity at PPARγ): functional antagonist of PPARγ
